Experimental data reported in publication PMC3914206.

Columns and labels:
Assay type in all cases: binding
Conditions in all cases: Compound Concentration 10 µM
panel of 442 kinases [1] = biological target: T1, panel of 442 kinases (Homo sapiens, UniProt P51955)
T1 construct: purchased KINOMEscan
T1 sequence (P51955 1-445): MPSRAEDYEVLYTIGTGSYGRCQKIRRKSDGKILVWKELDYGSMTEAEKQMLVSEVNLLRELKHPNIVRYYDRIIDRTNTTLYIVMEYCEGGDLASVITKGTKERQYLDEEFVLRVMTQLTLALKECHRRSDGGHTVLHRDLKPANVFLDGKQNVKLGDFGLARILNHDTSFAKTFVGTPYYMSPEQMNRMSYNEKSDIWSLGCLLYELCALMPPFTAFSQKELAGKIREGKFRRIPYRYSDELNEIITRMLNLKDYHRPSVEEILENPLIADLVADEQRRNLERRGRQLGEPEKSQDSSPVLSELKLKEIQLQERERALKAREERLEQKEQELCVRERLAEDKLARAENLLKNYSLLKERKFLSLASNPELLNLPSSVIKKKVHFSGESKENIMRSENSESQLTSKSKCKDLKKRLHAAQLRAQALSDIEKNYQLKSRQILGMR
Excerpt: (§1) We assessed the selectivity of members of this scaffold using the KINOMEscan methodology across a near comprehensive panel of 442 kinases [[18,27]].

panel of 442 kinases [2] = biological target: T2, panel of 442 kinases (Homo sapiens, UniProt Q13131)
T2 construct: purchased KINOMEscan
Excerpt: as §1

panel of 442 kinases [3] = biological target: T3, panel of 442 kinases (Homo sapiens, UniProt O15264)
T3 construct: purchased KINOMEscan
T3 sequence (O15264 1-365): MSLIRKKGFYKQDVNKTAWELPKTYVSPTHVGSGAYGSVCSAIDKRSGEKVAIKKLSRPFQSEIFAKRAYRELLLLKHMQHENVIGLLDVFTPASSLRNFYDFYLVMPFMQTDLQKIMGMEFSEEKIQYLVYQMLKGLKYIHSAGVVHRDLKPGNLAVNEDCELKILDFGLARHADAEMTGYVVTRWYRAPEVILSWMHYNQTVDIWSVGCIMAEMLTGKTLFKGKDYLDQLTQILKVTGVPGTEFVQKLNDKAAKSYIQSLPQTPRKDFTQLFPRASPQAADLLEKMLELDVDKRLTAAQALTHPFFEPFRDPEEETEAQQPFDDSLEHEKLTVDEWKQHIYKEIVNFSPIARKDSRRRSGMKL
Excerpt: as §1

T2 sequence (Q13131 whole entry): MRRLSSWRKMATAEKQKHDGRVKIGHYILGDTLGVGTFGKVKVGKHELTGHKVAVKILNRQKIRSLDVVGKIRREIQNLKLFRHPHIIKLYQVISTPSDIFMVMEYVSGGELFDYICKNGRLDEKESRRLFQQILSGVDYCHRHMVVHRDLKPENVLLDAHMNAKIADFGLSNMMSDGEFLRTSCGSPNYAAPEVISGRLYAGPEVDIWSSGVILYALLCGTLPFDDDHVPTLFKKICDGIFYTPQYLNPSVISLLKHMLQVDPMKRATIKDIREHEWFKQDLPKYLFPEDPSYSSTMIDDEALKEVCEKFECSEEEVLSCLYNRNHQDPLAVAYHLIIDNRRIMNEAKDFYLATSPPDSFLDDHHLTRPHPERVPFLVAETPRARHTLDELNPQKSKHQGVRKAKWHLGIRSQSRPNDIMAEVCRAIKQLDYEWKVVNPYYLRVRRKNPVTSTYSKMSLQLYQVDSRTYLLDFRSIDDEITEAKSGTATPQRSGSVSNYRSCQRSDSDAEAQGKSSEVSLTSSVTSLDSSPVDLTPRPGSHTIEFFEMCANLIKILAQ

Structure (SMILES): COc1cc(C(=O)N2CCC(N3CCN(C)CC3)CC2)ccc1Nc1ncc2c(n1)N(C)c1ccccc1C(=O)N2C [15 (LRRK2-IN-1)]
- KINOMEscan: NEK2 (panel of 442 kinases [1]): 100
- KINOMEscan: AMPK-alpha1 (panel of 442 kinases [2]): 51
- KINOMEscan: p38-delta (panel of 442 kinases [3]): 72

Structure (SMILES): COc1cc(C(=O)N2CCC(N3CCN(C)CC3)CC2)ccc1Nc1ncc2c(n1)N1CCc3cccc(c31)C(=O)N2C [Compound 24]
- KINOMEscan: NEK2 (panel of 442 kinases [1]): 62

Structure (SMILES): COc1cc(C(=O)N2CCC(N3CCN(C)CC3)CC2)ccc1Nc1ncc2c(n1)N(C1CCCC1)c1ccccc1C(=O)N2C [Compound 25, 11-cyclopentyl-2-((2-methoxy-4-(4-(4-methylpiperazin-1-yl)piperidine-1-carbonyl)phenyl)amino)-5-methyl-5H-benzo[e]pyrimido[5,4-b][1,4]diazepin-6(11H)-one]
- KINOMEscan: NEK2 (panel of 442 kinases [1]): 88
- KINOMEscan: AMPK-alpha1 (panel of 442 kinases [2]): 48
- KINOMEscan: p38-delta (panel of 442 kinases [3]): 100

Structure (SMILES): CCOc1cc(C(=O)N2CCC(N3CCN(C)CC3)CC2)ccc1Nc1ncc2c(n1)N(C1CCCC1)c1ccccc1C(=O)N2C [Compound 26]
- KINOMEscan: NEK2 (panel of 442 kinases [1]): 86
- KINOMEscan: AMPK-alpha1 (panel of 442 kinases [2]): 100
- KINOMEscan: p38-delta (panel of 442 kinases [3]): 100
